Our source for the IC50 values is patent US8993756B2 (Merck Sharp & Dohme Corp., priority 2011, dated 2015).

A value given as a limit tells only on which side of the number the result lay.

In one assay the target is JAK2 (Homo sapiens (Human), UniProt O60674). Nature of the assay: Jak Biochemical HTRF Assay (JAK2). The note with it: recombinant GST-tagged catalytic domain, [ATP] 8.5 μM. (In TR-FRET formats the signal depends on donor and acceptor labels being close together.)
A further assay has as its target JAK3 (Homo sapiens (Human), UniProt P52333). Nature of the assay: Jak Biochemical HTRF Assay (JAK3). The following applies: recombinant GST-tagged catalytic domain, [ATP] 2.9 μM.

Sequence of JAK3 (P52333 822-1111): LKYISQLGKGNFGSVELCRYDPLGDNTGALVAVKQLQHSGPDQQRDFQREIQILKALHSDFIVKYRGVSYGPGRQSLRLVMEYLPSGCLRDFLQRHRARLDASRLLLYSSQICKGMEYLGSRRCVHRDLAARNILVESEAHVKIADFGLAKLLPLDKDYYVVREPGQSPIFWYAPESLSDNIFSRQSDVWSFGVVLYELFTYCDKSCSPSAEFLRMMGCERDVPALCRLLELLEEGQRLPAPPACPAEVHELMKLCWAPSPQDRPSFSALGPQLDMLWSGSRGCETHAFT
Sequence of JAK2 (O60674 849-1124): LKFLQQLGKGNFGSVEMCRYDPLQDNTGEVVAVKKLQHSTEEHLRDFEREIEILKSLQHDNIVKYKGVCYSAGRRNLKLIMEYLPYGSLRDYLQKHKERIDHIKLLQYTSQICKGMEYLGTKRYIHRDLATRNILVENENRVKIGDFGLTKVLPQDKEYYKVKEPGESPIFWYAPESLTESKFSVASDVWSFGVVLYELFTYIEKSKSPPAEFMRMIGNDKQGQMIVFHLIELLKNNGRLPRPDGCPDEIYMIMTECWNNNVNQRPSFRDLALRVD

On to `CCOC(=O)c1c[nH]c2ncnc(-c3cccc(NC(=O)/C=C/c4ccc(C(F)(F)F)cc4)c3)c12` [Example 5-44, ethyl 4-[3-({(2E)-3-[4-(trifluoromethyl)phenyl]prop-2-enoyl}amino)phenyl]-7H-pyrrolo[2,3-d]pyrimidine-5-carboxylate], for which the IC50 at JAK2 (given as range class) was over 500 nM; on JAK3 (given as range class) it was 10 to 500 nM.

With `C=C(COC)C(=O)Nc1cccc(-c2ncnc3[nH]cc(C(=O)OCC)c23)c1` [Example 5-45, ethyl 4-(3-{[2-(methoxymethyl)acryloyl]amino}phenyl)-7H-pyrrolo[2,3-d]pyrimidine-5-carboxylate], the IC50 at JAK2 was over 1500 nM; at JAK3 it was 0.025 nM.

As to `CCOC(=O)c1c[nH]c2ncnc(-c3cccc(Nc4nc(Cl)ns4)c3)c12` [Example 6-1, Ethyl 4-{3-[(3-chloro-1,2,4-thiadiazol-5-yl)amino]phenyl}-7H-pyrrolo[2,3-d]pyrimidine-5-carboxylate], the figures for the IC50 on JAK2 and at JAK3 were 109 nM and 9.2 nM, respectively.

Regarding `CCOC(=O)c1c[nH]c2ncnc(-c3cccc(Nc4nccnc4C#N)c3)c12` [Example 6-2, Ethyl-4-{3-[(3-cyanopyrazin-2-yl)amino]phenyl}-7H-pyrrolo[2,3-d]pyrimidine-5-carboxylate], the IC50 was over 500 nM at JAK2 (given as range class) and 10 to 500 nM at JAK3 (given as range class).

For the compound `CCOC(=O)c1c[nH]c2ncnc(-c3cccc(Nc4ncnc(C#N)n4)c3)c12` [Example 6-3, ethyl 4-{3-[(4-cyano-1,3,5-triazin-2-yl)amino]phenyl}-7H-pyrrolo[2,3-d]pyrimidine-5-carboxylate], the IC50 on JAK2 (given as range class) and at JAK3 (given as range class) was 10 to 500 nM each time.

Consider `CCOC(=O)c1c[nH]c2ncnc(-c3cccc(Nc4nc(C#N)ns4)c3)c12` [Example 6-4, ethyl 4-{3-[(3-cyano-1,2,4-thiadiazol-5-yl)amino]phenyl}-7H-pyrrolo[2,3-d]pyrimidine-5-carboxylate], for which the IC50 at JAK2 (given as range class) is over 500 nM; at JAK3 (given as range class), 10 to 500 nM.

Regarding `CCOC(=O)c1c[nH]c2ncnc(-c3cccc(-c4ccnc(C#N)n4)c3)c12` [Example 7-1, Ethyl 4-(3-(2-cyanopyrimidin-4-yl)phenyl)-7H-pyrrolo[2,3-d]pyrimidine-5-carboxylate], the IC50 on JAK2 (given as range class) was over 500 nM; at JAK3 (given as range class) it was 10 to 500 nM.

For the compound `CCOC(=O)c1c[nH]c2ncnc(-c3cccc(-c4nc(Cl)ns4)c3)c12` [Example 7-2, ethyl 4-(3-(3-chloro-1,2,4-thiadiazol-5-yl)phenyl)-7H-pyrrolo[2,3-d]pyrimidine-5-carboxylate], the IC50 at JAK2 (given as range class) was over 500 nM; at JAK3 (given as range class), 10 to 500 nM.

With `CCOC(=O)c1c[nH]c2ncnc(-c3cccc(-c4nc(Br)ns4)c3)c12` [Example 7-3, ethyl 4-(3-(3-bromo-1,2,4-thiadiazol-5-yl)phenyl)-7H-pyrrolo[2,3-d]pyrimidine-5-carboxylate], the IC50 on JAK2 (given as range class) was over 500 nM; on JAK3 (given as range class), 10 to 500 nM.

For the compound `CCOC(=O)c1c[nH]c2ncnc(-c3cccc(-c4nc(C#N)ns4)c3)c12` [Example 7-4, Ethyl 4-(3-(cyano-1,2,4-thiadiazol-5-yl)phenyl)-7H-pyrrolo[2,3-d]pyrimidine-5-carboxylate], the half-maximal inhibitory concentration (IC50) at JAK2 (given as range class) is over 500 nM; at JAK3 (given as range class) it was 10 to 500 nM.

With `CCOC(=O)c1c[nH]c2ncnc(-c3cccc(C(=O)NCC#N)c3)c12` [Example 8-1], the IC50 at JAK2 (given as range class) was over 500 nM; on JAK3 (given as range class) it was 10 to 500 nM.

Take `CCOC(=O)c1c[nH]c2ncnc(-c3cccc(NC(=O)NCC#N)c3)c12` [Example 9-1, Ethyl 4-(3-(3-(cyanomethyl)ureido)phenyl)-7H-pyrrolo[2,3-d]pyrimidine-5-carboxylate]: the IC50 was over 500 nM on JAK2 (given as range class) and 10 to 500 nM on JAK3 (given as range class).

As for `CCOC(=O)c1c[nH]c2ncnc(-c3cccc(NC(=O)NC#N)c3)c12` [Example 9-2, ethyl 4-(3-(3-cyanoureido)phenyl)-7H-pyrrolo[2,3-d]pyrimidine-5-carboxylate], the IC50 at JAK2 (given as range class) and at JAK3 (given as range class) was 10 to 500 nM throughout.

For the compound `C=CS(=O)(=O)Nc1cccc(-c2ncnc3[nH]cc(C(=O)OCC)c23)c1` [Example 10-1, Ethyl 4-{3-[(ethenylsulfonyl)amino]phenyl}-7H-pyrrolo[2,3-d]pyrimidine-5-carboxylate], the IC50 is over 1500 nM at JAK2 and 0.037 nM on JAK3.

Turning to `C/C=C/S(=O)(=O)Nc1cccc(-c2ncnc3[nH]cc(C(=O)OCC)c23)c1` [Example 10-2, ethyl 4-(3-{[(1E)-prop-1-en-1-ylsulfonyl]amino}phenyl)-7H-pyrrolo[2,3-d]pyrimidine-5-carboxylate], the values for the IC50 at JAK2 and at JAK3 were over 1500 nM and 8.2 nM, respectively.

`C=C(C)S(=O)(=O)Nc1cccc(-c2ncnc3[nH]cc(C(=O)OCC)c23)c1` [Example 10-3, ethyl 4-(3-{[(1-methylethenyl)sulfonyl]amino}phenyl)-7H-pyrrolo[2,3-d]pyrimidine-5-carboxylate]: the IC50 is over 500 nM on JAK2 (given as range class) and 10 to 500 nM on JAK3 (given as range class).

With `C=C(C)C(=O)Nc1cc(-c2ncnc3[nH]cc(C(=O)OC)c23)ccc1F` [Example 11-1, Methyl 4-{4-fluoro-3-[(2-methylacryloyl)amino]phenyl}-7H-pyrrolo[2,3-d]pyrimidine-5-carboxylate], the figures for the IC50 at JAK2 and at JAK3 were over 1500 nM and 0.4 nM, respectively.

Regarding `C=C(C)C(=O)Nc1cccc(-c2ncnc3[nH]cc(C(=O)OC)c23)c1` [Example 11-2, methyl 4-{3-[(2-methylacryloyl)amino]phenyl}-7H-pyrrolo[2,3-d]pyrimidine-5-carboxylate], the results for the IC50 on JAK2 and on JAK3 were over 1500 nM and 2 nM, respectively.

As to `C=CC(=O)N(C)c1cccc(-c2ncnc3[nH]cc(C(=O)OCC)c23)c1` [Example 12-1, Ethyl 4-(3-(N-methylacrylamido)phenyl)-7H-pyrrolo[2,3-d]pyrimidine-5-carboxylate], the IC50 on JAK2 was over 1500 nM; at JAK3 it was 0.13 nM.

For `C=C(CNS(C)(=O)=O)C(=O)Nc1cccc(-c2ncnc3[nH]cc(C(=O)OCC)c23)c1` [Example 13-1, Ethyl 4-(3-(2-(methylsulfonamidomethyl)acrylamido)phenyl)-7H-pyrrolo[2,3-d]pyrimidine-5-carboxylate], the figures for the IC50 on JAK2 and on JAK3 were over 1500 nM and 0.052 nM, respectively.

`C=C(CN)C(=O)Nc1cccc(-c2ncnc3[nH]cc(C(=O)OCC)c23)c1` [Example 13-2, Ethyl 4-(3-(2-(aminomethyl)acrylamido)phenyl)-7H-pyrrolo[2,3-d]pyrimidine-5-carboxylate]: the IC50 was over 1500 nM on JAK2 and under 10 nM at JAK3 (given as range class).

As to `C=C(CNC(C)=O)C(=O)Nc1cccc(-c2ncnc3[nH]cc(C(=O)OCC)c23)c1` [Example 13-3, ethyl 4-(3-(2-(acetamidomethyl)acrylamido)phenyl)-7H-pyrrolo[2,3-d]pyrimidine-5-carboxylate], the half-inhibitory concentration (IC50) was over 1500 nM at JAK2 and under 10 nM on JAK3 (given as range class).

As for `C=C(CN(C)C)C(=O)Nc1cccc(-c2ncnc3[nH]cc(C(=O)OCC)c23)c1` [Example 14, Ethyl-4-[3-({2-[(dimethylamino)methyl]acryloyl}amino)phenyl]-7H-pyrrolo[2,3-d]pyrimidine-5-carboxylate], the figures for the IC50 at JAK2 and on JAK3 were over 1500 nM and 0.066 nM, respectively.

As for `C=C(CF)C(=O)Nc1cccc(-c2ncnc3[nH]cc(C(=O)OCC)c23)c1` [Example 15-1, Ethyl-4-(3-{[2-(fluoromethyl)acryloyl]amino}phenyl)-7H-pyrrolo[2,3-d]pyrimidine-5-carboxylate], the IC50 on JAK2 was over 1500 nM; at JAK3 it was 0.024 nM.

The term IC50 denotes the midpoint of a concentration-inhibition curve.
